The text below walks through data of the supplement of paper PMC10307832.

Holding throughout (assay): relative viability (nuclei count vs DMSO), 5 days (fraction); higher = more cells survive
Compound in the assay “Tosedostat + Navitoclax”: CC(C)C[C@@H](C(=O)N[C@H](C(=O)OC1CCCC1)c1ccccc1)[C@H](O)C(=O)NO [Tosedostat] + CC1(C)CCC(c2ccc(Cl)cc2)=C(CN2CCN(c3ccc(C(=O)NS(=O)(=O)c4ccc(N[C@H](CCN5CCOCC5)CSc5ccccc5)c(S(=O)(=O)C(F)(F)F)c4)cc3)CC2)C1 [Navitoclax] (partner 0.5 µM)
In short, it runs like this:
(§1)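 Dosing by pin tool came one day after lung cancer cell lines were seeded in 1536-well plates, using either one drug or a fixed anchor-drug dose plus five library-drug doses (not always all listed) in √10 steps. After 5 days, nuclei were counted on 4× images. Relative viability is treated-well nuclei count divided by vehicle-well nuclei count, and values are medians of duplicate plates.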

Compound in the assay “Tosedostat + Olaparib”: CC(C)C[C@@H](C(=O)N[C@H](C(=O)OC1CCCC1)c1ccccc1)[C@H](O)C(=O)NO [Tosedostat] + O=C(c1cc(Cc2n[nH]c(=O)c3ccccc23)ccc1F)N1CCN(C(=O)C2CC2)CC1 [Olaparib] (partner 8 µM)
In short, it runs like this:
as §1

Compound in the assay “Tosedostat + Pictilisib”: CC(C)C[C@@H](C(=O)N[C@H](C(=O)OC1CCCC1)c1ccccc1)[C@H](O)C(=O)NO [Tosedostat] + CS(=O)(=O)N1CCN(Cc2cc3nc(-c4cccc5[nH]ncc45)nc(N4CCOCC4)c3s2)CC1 [Pictilisib] (partner 1 µM)
In short, it runs like this:
as §1

Compound in assay [1]: CC1=NN=C(O1)C2=NN=C(C=C2)N3CCC(CC3)OC4=C(C=CC(=C4)F)Cl + Cc1nc(Nc2ncc(C(=O)Nc3c(C)cccc3Cl)s2)cc(N2CCN(CCO)CC2)n1 [Dasatinib] (partner 0.075 µM)
In short, it runs like this: as §1

As to UMC-11, the relative viability with Tosedostat + Navitoclax (first compound 0.02 µM) amounted to 0.343; with Tosedostat + Navitoclax (first compound 0.06325 µM) it was 0.309; in the assay with Tosedostat + Navitoclax (first compound 0.2 µM) it was 0.323; with Tosedostat + Navitoclax (first compound 0.6325 µM), 0.322; with Tosedostat + Navitoclax (first compound 2 µM), 0.287; with Tosedostat + Olaparib (first compound 0.02 µM), 0.374. The relative viability stood at 0.336 with Tosedostat + Olaparib (first compound 0.06325 µM); 0.287 with Tosedostat + Olaparib (first compound 0.2 µM); 0.273 in the assay with Tosedostat + Olaparib (first compound 0.6325 µM); 0.327 with Tosedostat + Olaparib (first compound 2 µM); 0.911 with Tosedostat + Pictilisib (first compound 0.02 µM); 0.807 in the assay with Tosedostat + Pictilisib (first compound 0.06325 µM). In addition, the relative viability stood at 0.782 in the assay with Tosedostat + Pictilisib (first compound 0.2 µM); 0.705 with Tosedostat + Pictilisib (first compound 0.6325 µM); 0.828 with Tosedostat + Pictilisib (first compound 2 µM); 0.473 in assay [1] (first compound 0.253 µM); 0.476 in assay [1] (first compound 0.8 µM); 0.512 in assay [1] (first compound 2.53 µM). In assay [1] (first compound 8 µM), the relative viability turned out to be 0.435.
